Drawing on patent publication US7514417B2 (CV Therapeutics, Inc., priority 2005, dated 2009), this text covers Ki and half-life for 4 compounds.

One data set deals with T1, A1 adenosine receptor (Mesocricetus auratus, UniProt A0A1U8BVR4).
T1 construct: A1 adenosine receptor sites on the membranes of DDT cells; endogenous in cells; host or cells: DDT cells (DDT1, hamster vas deferens smooth muscle cell line), membrane preparation
T1 sequence (A0A1U8BVR4 1-326): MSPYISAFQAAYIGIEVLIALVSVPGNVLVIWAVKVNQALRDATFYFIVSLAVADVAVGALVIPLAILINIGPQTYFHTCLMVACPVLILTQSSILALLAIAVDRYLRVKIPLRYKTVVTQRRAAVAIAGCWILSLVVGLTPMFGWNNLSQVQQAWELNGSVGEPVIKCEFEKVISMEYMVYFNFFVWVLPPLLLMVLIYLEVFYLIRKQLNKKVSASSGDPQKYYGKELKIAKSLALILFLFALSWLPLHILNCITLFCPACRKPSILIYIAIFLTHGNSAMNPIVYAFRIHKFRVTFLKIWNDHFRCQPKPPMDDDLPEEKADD
Kind of data set: Competitive radioligand binding assay, A1 binding affinity, DDT1 cell membranes. On the set-up: species or system hamster. The settings on record: membranes of DDT cells, tritiated radioligand (3H-CPA) 1.5 nM, 23° C. 90 minutes. The protocol: DDT cells (hamster vas deferens smooth muscle cell line) were grown as monolayers in petri dishes using Dulbecco's Modified Eagle's Medium (DMEM) containing 2.5 μg mL^−1 amphotericin B, 100 U mL^−1 penicillin G, 0.1 mg mL^−1 streptomycin sulfate and 5% fetal bovine serum in a humidified atmosphere of 95% air and 5% CO2. Cells were subcultured twice weekly by dispersion in Hank's Balanced Salt Solution (HBSS) without the divalent cations and containing 1 mM EDTA. The cells were then seeded in growth medium at a density of 1.2×10^5 cells per plate and experiments were performed 4 days later at approximately one day preconfluence.
Attached cells were washed twice with HBSS (2×10 mL), scraped free of the plate with the aid of a rubber policeman in 5 mL of 50 mM Tris-HCl buffer pH 7.4 at 4° C. and the suspension was homogenized for 10 s. The suspension was then centrifuged at 27,000×g for 10 min. The pellet was resuspended in homogenization buffer by vortexing and centrifuged again as described above. The final pellet was resuspended in 1 vol of 50 mM Tris-HCl buffer pH 7.4 containing 5 mM MgCl2 for A1 adenosine receptor assays. For the [^35S]GTPγS binding assay the final pellet was resuspended in 50 mM Tris-HCl pH 7.4 containing 5 mM MgCl2, 100 mM NaCl and 1 mM dithiothreitol. This membrane suspension was then placed in liquid nitrogen for 10 min and stored at −80° C. Aliquots of the membrane suspension were later thawed and used for assays. The protein content was determined with a Bradford™ Assay Kit using bovine serum albumin as standard.
Briefly, 50-70 ug of membrane protein were incubated in a mixture containing 2U/ml adenosine deaminase and 10 μM GTP-γS in 50 mM Tris-HCl buffer, pH 7.4, with 1 mM EDTA in glass tubes. Stock solutions of the compounds of the invention were serially diluted (10^−10M to 10^−4M) in Tris buffer and added to the incubation mixture. […] After incubation at 23° C. 90 minutes, the reaction was stopped by filtration on a Brandel MR24 cell harvester and washing with ice-cold Tris-EDTA buffer (three times, approximate volume 10 ml/wash) over Whatman GF/B filters (presoaked for 1 h in 0.3% polyethylenimine to reduce non-specific binding). Filters were transferred to scintillation vials and 5 ml of Scintisafe (VWR, Brisbane, Calif.) was added. The amount of radioactivity retained on the filters was determined by liquid scintillation spectrometry.

For data set [1] the following is noted: cited from earlier work.

On to `CNC(=O)c1cnn(-c2nc(NC3CCCC3)c3ncn([C@@H]4O[C@H](CO)[C@@H](O)[C@H]4O)c3n2)c1` [XXXV, (1-{9-[(4S,3R,5R)-3,4-dihydroxy-5-(hydroxymethyl)oxolan-2-yl]-6-(cyclopentylamino)purin-2-yl}pyrazol-4-yl)-N-methylcarboxamide], for which the Ki (commonly the equilibrium dissociation constant of an inhibitor or competing ligand from its target) at A1 adenosine receptor came to 1 nM.
`Nc1ncnc2c1ncn2[C@@H]1O[C@H](CO)[C@@H](O)[C@H]1O` [adenosine]: the half-life result in data set [1] is “less than 10 sec”.
“(4S,3R,5R)-2-[2-(4-butyl-3,5-dimethylpyrazolyl)-6-(cyclopentylamino)purin-9-yl]-5-(hydroxymethyl)oxolane-3,4-diol [XXVIII]” came in with a Ki at A1 adenosine receptor of 188 nM.
In the case of “(4S,3R,5R)-2-[6-(bicyclo[2.2.1]hept-2-ylamino)-2-pyrazolylpurin-9-yl]-5-(hydroxymethyl)oxolane-3,4-diol [XXXVI]”, the Ki at A1 adenosine receptor is 0.4 nM.
